Results reported in ChEMBL document CHEMBL1201862, “PubChem BioAssay data set” (2004).
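Step 1: Grow cells in 96-well plates. Step 2: Expose to compound for 48 hours at 5 concentrations. Step 3: Interpolate endpoints linearly; if unreached, use highest concentration. GI50: concentration for 50% inhibition of growth.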 Calls of active or inactive are those of the source. No stated cut-off is given here; in the data, active = GI50 up to about 1.1 µM and inactive = higher. Non-standard residues stand in square brackets, D forms with d. Residues, ends and D or L forms follow the SMILES beside them. ξ: configuration not given here. Pen = CC(C)(S)[C@H](N)C(=O)O; ξL = CC(C)CC(N)C(=O)O

Columns and labels:
Assay in all cases: DTP human tumour cell line panel, 48 h
A498 = system: A498
A549 = system: A549
CCRF-CEM = system: CCRF-CEM
HCC 2998 = system: HCC 2998
HCT-116 = system: HCT-116
HOP-92 = system: HOP-92
IGROV-1 = system: IGROV-1
KM12 = system: KM12
Malme-3M = system: Malme-3M
NCI-H226 = system: NCI-H226
NCI-H23 = system: NCI-H23
NCI/ADR-RES = system: NCI/ADR-RES
OVCAR-4 = system: OVCAR-4
SF-295 = system: SF-295
SK-MEL-2 = system: SK-MEL-2
SK-OV-3 = system: SK-OV-3
SNB-75 = system: SNB-75
UACC-257 = system: UACC-257
UO-31 = system: UO-31
TK-10 = system: TK-10

SMILES	GI50 (A498)	GI50 (A549)	GI50 (CCRF-CEM)	GI50 (HCC 2998)	GI50 (HCT-116)	GI50 (HOP-92)	GI50 (IGROV-1)	GI50 (KM12)	GI50 (Malme-3M)	GI50 (NCI-H226)	GI50 (NCI-H23)	GI50 (NCI/ADR-RES)	GI50 (OVCAR-4)	GI50 (SF-295)	GI50 (SK-MEL-2)	GI50 (SK-OV-3)	GI50 (SNB-75)	GI50 (UACC-257)	GI50 (UO-31)	GI50 (TK-10)
C[S+](C)CC1OC(n2cnc3c(N)ncnc32)C(O)C1O (centres undefined)	> 225 µM (inactive)	> 225 µM (inactive)	> 225 µM (inactive)	> 225 µM (inactive)	> 225 µM (inactive)	> 225 µM (inactive)	> 225 µM (inactive)	> 225 µM (inactive)	> 225 µM (inactive)	> 225 µM (inactive)	> 225 µM (inactive)	> 225 µM (inactive)	> 225 µM (inactive)	> 225 µM (inactive)	> 225 µM (inactive)	> 225 µM (inactive)	> 225 µM (inactive)	> 225 µM (inactive)	> 225 µM (inactive)	
c1ccc2c(c1)SCCc1cn[nH]c1-2	> 100 µM (inactive)	> 100 µM (inactive)	> 100 µM (inactive)	> 100 µM (inactive)	> 100 µM (inactive)	> 73.5 µM (inactive)	> 100 µM (inactive)	> 100 µM (inactive)	> 100 µM (inactive)	24.7 µM (inactive)	> 100 µM (inactive)	> 100 µM (inactive)	> 100 µM (inactive)	> 100 µM (inactive)	> 100 µM (inactive)	> 100 µM (inactive)	> 92.5 µM (inactive)	> 100 µM (inactive)	> 100 µM (inactive)	
CC(=O)OCC1OC(Nc2ncc(-c3ccc(C)cc3)s2)C(OC(C)=O)C(OC(C)=O)C1OC(C)=O (centres undefined)	48.2 µM (inactive)	44.5 µM (inactive)	29.1 µM (inactive)	23.3 µM (inactive)	26.6 µM (inactive)	42.6 µM (inactive)	66.5 µM (inactive)	36.1 µM (inactive)	61.5 µM (inactive)	25.2 µM (inactive)	50.7 µM (inactive)	26.3 µM (inactive)	27 µM (inactive)	43.2 µM (inactive)	34 µM (inactive)	68.4 µM (inactive)	39 µM (inactive)	25.6 µM (inactive)	19.8 µM (inactive)	
CN(C)CCOc1cc2c(c3ccccc13)-c1ccccc1C2=O	6.68 µM (inactive)	9.62 µM (inactive)	1.52 µM (inactive)	1.75 µM (inactive)	1.03 µM (active)	0.933 µM (active)	1.88 µM (inactive)	1.46 µM (inactive)	2.19 µM (inactive)	1.95 µM (inactive)	2.36 µM (inactive)	0.818 µM (active)	1.12 µM (active)	1.71 µM (inactive)	1.95 µM (inactive)	7.53 µM (inactive)	1.8 µM (inactive)	1.72 µM (inactive)	1.5 µM (inactive)	
C=C1C[C@@H](O)C[C@@]2(C)C[C@@H]3OC(=O)C(=C)[C@@H]3C[C@H]12	12.4 µM (inactive)	23 µM (inactive)	3.56 µM (inactive)	3.82 µM (inactive)	3.43 µM (inactive)	13.1 µM (inactive)	11.2 µM (inactive)	6.62 µM (inactive)	3.37 µM (inactive)	14 µM (inactive)	15.9 µM (inactive)	6.55 µM (inactive)	15.2 µM (inactive)	15.3 µM (inactive)	11.9 µM (inactive)	20.7 µM (inactive)	8.47 µM (inactive)	4.43 µM (inactive)	4.85 µM (inactive)	
O=C(O)C(F)(F)C(F)(F)C(F)(F)C(F)(F)C(F)(F)C(F)(F)C(F)(F)C(F)(F)F	38.3 µM (inactive)	47.8 µM (inactive)	28.2 µM (inactive)	86.9 µM (inactive)	41 µM (inactive)	24.9 µM (inactive)	> 100 µM (inactive)	53.1 µM (inactive)	> 100 µM (inactive)	34.2 µM (inactive)	61.4 µM (inactive)	44.9 µM (inactive)	73.3 µM (inactive)	31 µM (inactive)		29.6 µM (inactive)	71.8 µM (inactive)	> 100 µM (inactive)	47.5 µM (inactive)	> 100 µM (inactive)
CCCCCCSc1nc(N)nc2nc[nH]c12	26.9 µM (inactive)	30 µM (inactive)	46.6 µM (inactive)	> 55.5 µM (inactive)	35.2 µM (inactive)	28.8 µM (inactive)	30.5 µM (inactive)	55.6 µM (inactive)	35.7 µM (inactive)	32.1 µM (inactive)	31.8 µM (inactive)	37.5 µM (inactive)	52.7 µM (inactive)	59.6 µM (inactive)	18.4 µM (inactive)	28.8 µM (inactive)	17 µM (inactive)	37.7 µM (inactive)	24.3 µM (inactive)	
Cc1cc(O)c2c(c1O)C(=O)C13C(=C(O)C4C(O)C1C1C(O)C3C(O)=C3C(=O)c5c(O)cc(C)c(O)c5C(=O)C341)C2=O (centres undefined)	0.0362 µM (active)	0.0311 µM (active)	0.035 µM (active)	0.032 µM (active)	0.0342 µM (active)	0.24 µM (active)	0.137 µM (active)	0.0726 µM (active)	0.0428 µM (active)	0.199 µM (active)	0.207 µM (active)	0.15 µM (active)	0.385 µM (active)	0.03 µM (active)	0.172 µM (active)	0.0378 µM (active)	0.0499 µM (active)	0.267 µM (active)	0.0392 µM (active)	
C=CCc1cccc2cc(C(=O)Nc3ccc(C)cc3)c(=N)oc12	> 100 µM (inactive)	> 100 µM (inactive)	> 100 µM (inactive)	> 100 µM (inactive)	> 100 µM (inactive)	> 100 µM (inactive)	> 100 µM (inactive)	> 100 µM (inactive)	> 100 µM (inactive)	33.9 µM (inactive)	> 100 µM (inactive)	> 100 µM (inactive)	> 100 µM (inactive)		45.2 µM (inactive)	> 100 µM (inactive)	> 100 µM (inactive)	> 100 µM (inactive)		
CSCC[C@H](NC(=O)C(CC(C)C)NC(=O)[C@H](Cc1c[nH]cn1)NC(=O)CNC(=O)[C@@H](NC(=O)[C@@H](C)NC(=O)[C@H](Cc1c[nH]c2ccccc12)NC(=O)[C@H](CCC(N)=O)NC(=O)[C@@H](N)CC(N)=O)C(C)(C)SC)C(N)=O (some centres undefined) (H-NQW[dA][Pen](Me)GH[ξL]M-NH2)	> 100 µM (inactive)	> 100 µM (inactive)	> 100 µM (inactive)	> 100 µM (inactive)	> 100 µM (inactive)	> 100 µM (inactive)	> 100 µM (inactive)	> 100 µM (inactive)	> 100 µM (inactive)	> 100 µM (inactive)	> 100 µM (inactive)	> 100 µM (inactive)	> 100 µM (inactive)	> 100 µM (inactive)	> 100 µM (inactive)	> 100 µM (inactive)	> 100 µM (inactive)	> 100 µM (inactive)	> 100 µM (inactive)	
COC(=O)C1C(O)C(C)C(O)C(C)(O)/C=C\C=C(C)C(=O)Nc2c(C)c(OC(C)=O)c3c(c2O)C(=O)C(C)=C2OCOC(=C23)C(C)=CC(C)(O)C(O)C(C)C1OC(C)=O (centres undefined)	49.8 µM (inactive)	> 100 µM (inactive)	34.7 µM (inactive)	34.4 µM (inactive)	21.4 µM (inactive)	2.52 µM (inactive)	30.1 µM (inactive)	26.7 µM (inactive)	28.9 µM (inactive)	63.5 µM (inactive)	24.4 µM (inactive)	> 100 µM (inactive)	75 µM (inactive)	80.4 µM (inactive)	19.6 µM (inactive)	> 95.1 µM (inactive)	31 µM (inactive)	26.1 µM (inactive)	> 100 µM (inactive)	
CCOC(=O)CNC(=O)NC12CC3CC(CC(C3)C1)C2	147 µM (inactive)	229 µM (inactive)	182 µM (inactive)	142 µM (inactive)	156 µM (inactive)	22.1 µM (inactive)	240 µM (inactive)	150 µM (inactive)	133 µM (inactive)	203 µM (inactive)	182 µM (inactive)	305 µM (inactive)	294 µM (inactive)	322 µM (inactive)	141 µM (inactive)	> 418 µM (inactive)	110 µM (inactive)	176 µM (inactive)	171 µM (inactive)	
O=C(O)C(O)Cc1ccccn1 (centres undefined)	> 100 µM (inactive)	> 100 µM (inactive)	> 100 µM (inactive)	> 100 µM (inactive)		> 100 µM (inactive)	> 100 µM (inactive)	> 100 µM (inactive)	> 100 µM (inactive)	> 100 µM (inactive)	> 100 µM (inactive)	> 100 µM (inactive)	> 100 µM (inactive)	> 100 µM (inactive)	> 100 µM (inactive)	> 100 µM (inactive)		> 100 µM (inactive)	> 100 µM (inactive)	> 100 µM (inactive)
